# Data from patent US20250340590A1, “PEPTIDE HAVING ANTI-INFLAMMATORY ACTIVITY AND USE THEREOF” (CAREGEN CO., LTD., priority 2021, published 2025).
# Tested on: Cox2
# Test: Cox2 protein level by Western blot in HaCaT cells induced with LPS, TGFβ and IL-23
# Assay type: cell-based, human
# Conditions: IL-23 and LPS, peptide at 5 μM and 50 μM, 24 hours, compared to group not treated with the peptide
# Procedure: In order to further confirm the anti-inflammatory effect of the peptide treatment of the present invention in addition to the results of Experimental Example 1, HaCaT cells were treated with Th17 (type 17), which is an inflammation-inducing substance, and the expression levels of inflammation-inducing markers iNos and Cox2 were confirmed. As the inflammation-inducing substances, the cells were treated with LPS, TGFβ, and IL-23, and since iNos is an enzyme involved in the production of nitric oxide (NO), which is an inflammation-related protein induced by LPS, etc., it is possible to confirm whether inflammation is inhibited by measuring the expression levels of iNos and Cox2.
# HaCaT cells were dispensed into a 24-well plate at a concentration of 3× 10^5 cells/well and cultured until the next day. The medium was replaced with serum-free medium, and after 4 hours, the cells were treated with TGFβ, IL-23, and LPS, which are Th17 type inflammation-inducing cytokines, and then with the peptide of the present invention and cultured again for another 24 hours. […] In order to perform Western blotting, the amounts of iNos and Cox2 proteins were measured using an anti-iNos antibody and an anti-Cox2 antibody (Cell Signaling Technology, USA). […]
substance,measurement,value
TWNS [peptide of the present invention],expression level of Cox2 protein,decreased
